SMILES strings stand for the structures.

The assay deals with Euonymus alata diacylglycerol acetyltransferase (AcDAGAT), native enzyme activity in cell free homogenate of endosperm plus embryo. The experiment in a line: AcDAGAT assay with [1-14C]acetyl-CoA in cell free homogenate (CFH) of developing Euonymus alata seeds. It counts as biochemical. On the procedure:
Characterization of acyltransferase activity by in vitro assays. Acyltransferase activity was assayed by incubating [^14C]acetyl-CoA with cell free extracts from developing Euonymus alata seeds and exogenous 1,2-diacylglycerol (DAG). Total lipids were extracted, radioactivity assayed, then the amount of label in the 1,2-diacyl-3-acetin fraction determined by TLC. There was a very high (greater than about 20-fold), largely soluble acetyl-CoA hydrolase activity that competed with the transferase for substrate.
All procedures were carried out on ice or at 4° C. Frozen embryo and endosperm tissue was added to two volumes of chilled buffer containing 0.3 M sucrose, 10 mM NaF, 5 mM MgCl2, 2 mM dithiothreitol, 1 mM EDTA and 40 mM Hepes -NaOH (pH 7.4), homogenized, and filtered through two layers of Miracloth. The residue was rehomogenized in two more volumes of buffer and filtered. The filtrates were combined and constitute the cell free homogenate (CFH). The CFH was frozen and stored at −70° C. until used and typically contained 12-17 mg protein/ml. Protein concentrations were estimated using the Bio-Rad protein assay, which is based on the Bradford method (1976), using bovine serum albumin as the standard.
The standard (Ac)DAGAT assay contained [1-^14C]acetyl-CoA (100 μM, 200,000 d.p.m.) plus 140 μl of homogenization buffer in a total volume of 200 μl. 1,2-dioleoyl-sn-glycerol (50 μg, 0.4 mM) was added as 1 μl of ethanol solution. The assay was initiated by adding 20 μl of CFH. The reaction was run at room temperature (25° C.) for 1S min and terminated by the addition of hot isopropanol (1 ml). Lipids were extracted with hexane and isopropanol as described by Hara and Radin (1978). The [^14C]lipid residue was dissolved in hexane and an aliquot assayed for radioactivity by liquid scintillation counting. The standard long-chain DAGAT assay contained 20 μM [1-^14C]palmitoyl-CoA and 20-40 μl of CFH and was run for 30 minutes: all other aspects were as for acetyl DAGAT assays.
Incubation of cell free homogenates (CFH) from developing Euonymus alata endosperm plus embryo tissues with [^14C]acetyl-CoA produced labeled lipids. […] Long-chain TAG elutes ahead of Ac-TAG in this solvent system. When this labeled band was recovered and analyzed by C 18 reversed-phase TLC, the radioactivity migrated with the mass bands corresponding to the major Ac-TAG molecular species, namely C16/C18 and C18/C18. When a unique exogenous diacylglycerol, 1,2-dihexanoyl-sn-glycerol, was added to the assays, a novel band appeared that co-chromatographed with the synthetic 3-acetyl-1,2-dihexanoin standard in both normal and reverse phase TLC systems. The migration of the standard was confirmed by GC analysis of recovered fractions from the TLC plates. […]

Broadly, the Km is the substrate concentration at which the rate is half of its maximum. In the case of `CC(=O)SCCNC(=O)CCNC(=O)[C@H](O)C(C)(C)COP(=O)(O)OP(=O)(O)OC[C@H]1O[C@@H](n2cnc3c(N)ncnc32)[C@H](O)[C@@H]1OP(=O)(O)O` [acetyl-CoA], the Km (Lineweaver-Burke reciprocal plot, CFH, 25° C.) worked out at 100 µM. For the same compound, the “Vmax (estimate from acetyl-CoA concentration curve)” value (acetyl-CoA concentration curve, cell free extracts of developing seeds) is recorded as 120 nmoles/hour/gram fresh weight seed tissue. Further, the Vmax (acetyl-CoA varied, Lineweaver-Burke reciprocal plot, CFH) is recorded as 2.5 nmoles/min/gfw.

On to `CCCCCCCC/C=C\CCCCCCCC(=O)OC[C@H](CO)OC(=O)CCCCCCC/C=C\CCCCCCCC` [sn-1,2-diolein, 1,2-dioleoyl-sn-glycerol], for which the “average enhancement of AcDAGAT activity by exogenous sn-1,2-diolein” value (0.1-1.2 mM sn-1,2-diolein added, endogenous DAG present) amounted to 30%.

(Values after US7429473B2, “Diacylglycerol acyltransferase genes, proteins, and uses thereof” (Michigan State University, priority 2003, dated 2008).)
